From patent US12129221B2, “Difluoro phenyl amide RIP1 inhibitor” (SIRONAX LTD, priority 2018, dated 2024)
“Also recorded” adds a separate entry of the source. Read-outs that look alike come from different tables or passages of the source.

Legend:
[1] = Hepatocyte stability, monkey; assay type: in vitro ADME; details: monkey, hepatocytes, read-out: Monkey T1/2
Excerpt: (§1) Representative Metabolic Stability Data II, +, Extrapolated.

[2] = Liver microsome stability, human; assay type: in vitro ADME; details: liver microsomes, liver microsome stability, read-out: Human T1/2
Excerpt: (§2) Representative Metabolic Stability Data I; +, Extrapolated.

PK in monkey = details: in vivo
[3] = Liver microsome stability, mini-pig; assay type: in vitro ADME; parameters: key to mini-pig T1/2 (min): +, Extrapolated; details: extrapolated
Excerpt: as §2

[4] = Hepatocyte stability, dog; assay type: in vitro ADME; details: dog, hepatocytes, read-out: Dog T1/2
Excerpt: as §1

[5] = Liver microsome stability, dog; assay type: in vitro ADME; details: dog, liver microsomes
Excerpt: as §2

[6] = Hepatocyte stability, rat; assay type: in vitro ADME; details: rat, hepatocytes, read-out: Rat T1/2
Excerpt: as §1

ferroptosis = assay: Ferroptosis inhibitor activity; assay type: cell-based; details: 1 uM threshold activity extrapolated
Excerpt: Ferroptosis Inhibitor Activity 1 Um Threshold Activity Extrapolated

HT-29 = assay: EC50 in HT-29; assay type: cell-based; details: Homo sapiens
[7] = Liver microsome stability, monkey; assay type: in vitro ADME; details: monkey, liver microsomes
Excerpt: as §2

PK in dog = details: in vivo
necrosis = assay: Necrosis inhibitory activity (cell necrosis / cell viability assay); assay type: cell-based
Excerpt: Necrosis Inhibitory Activity
Representative IC50 of hRIP1 Kinase Assay Correlated with Our IC50 of Cell Necrosis Assay: […]

[8] = Hepatocyte stability, mini-pig; assay type: in vitro ADME; details: minipig, hepatocytes, read-out: mini-pig T1/2
Excerpt: as §1

[9] = Hepatocyte stability, human; assay type: in vitro ADME; details: human, hepatocytes, read-out: Human T1/2
Excerpt: as §1

PK in mouse = details: in vivo
[10] = system: mouse EAE model of multiple sclerosis; assay: Mouse EAE model of multiple sclerosis; assay type: in vivo, C57/BL6 mice
Excerpt: A mouse EAE model of multiple sclerosis was established by immunizing C57/BL6 mice with MOG35-55 (amino acids 35-55 of myelin oligodendrocyte glycoprotein) to induce autoimmune reaction to the myelin of the CNS. Immune reaction causes damage to the myelin, and subsequently the neurons, resulting in animal paralysis.
SIR1-365 was delivered by food at 10 g/kg and FTY-720 was used as a positive control. Mice were feed with FTY-720 containing drinking water or with SIR1-365 containing chow 2 days before 1st immunization for 28 consecutive days. Scoring started at Day 8 post-1st immunization.
The results of pathological studies indicated myelin destruction of the spinal cord was protected by SIR1-365. Three different spinal cord regions were sectioned and stained with hematoxylin and eosin (H&E), spinal cord damages were scored and quantified. Feeding with SIR1-365 containing food protected spinal cord damage induced by auto-immune reaction in EAE model.

PK in rat = assay: PK in rat; parameters: species or system SD rat; details: Sprague-Dawley, in vivo; for half-life / bioavailability: rat
Excerpt: Representative PK Date of Pro-Drug Compounds

[11] = Hepatocyte Stability, comparison table
[12] = po, 60 mg/kg, SD rat, dose 60 mg/Kg micropower

`CCC(C)(C)C(=O)N(O)Cc1cc(F)cc(F)c1` [Compound 13, N-(3,5-difluorobenzyl)-N-hydroxy-2,2-dimethylbutanamide] gave a half-life [1, 11] of 25 min, a half-life ([1]; Hepatocyte stability) of 24.9 min and a half-life [2] of 228 min. It also gave an AUC(0-inf) (PK in monkey; IV 2 mg/kg) of 1760 ng·h/mL, a clearance (PK in monkey; IV 2 mg/kg) of 19.3 mL/min/kg and a half-life (PK in monkey; IV 2 mg/kg) of 672 min. For the same compound, the Vd (PK in monkey; IV 2 mg/kg, read-out: Vdss) was 0.93 L/kg, the AUC(0-inf) (PK in monkey; PO 30 mg/kg) was 6930 ng·h/mL and the Cmax (PK in monkey; PO 30 mg/kg) was 3730 ng/mL. For the same compound, the bioavailability (PK in monkey; PO 30 mg/kg) was 26.3%, the half-life (PK in monkey; PO 30 mg/kg) was 90 min and the AUC(0-inf) (PK in monkey; PO 100 mg/kg) was 41600 ng·h/mL. It also gave a Cmax (PK in monkey; PO 100 mg/kg) of 10700 ng/mL, a bioavailability (PK in monkey; PO 100 mg/kg) of 47.5% and a half-life (PK in monkey; PO 100 mg/kg) of 106 min. For the same compound, the AUC(0-inf) (PK in monkey; PO 200 mg/kg) was 87200 ng·h/mL, the Cmax (PK in monkey; PO 200 mg/kg) was 20600 ng/mL and the bioavailability (PK in monkey; PO 200 mg/kg) was 49.5%. The half-life (PK in monkey; PO 200 mg/kg) was 130 min, the “mini-pig T1/2 (min)” value [3] was “+” and the half-life [4, 11] was 13 min. It also gave a half-life ([4]; Hepatocyte stability) of 12.8 min, a half-life ([5]; comparison table with WO2016/101885 compounds, read-out: Dog Liver Microsome T1/2) of 2 min and a half-life ([5]; liver microsome stability, read-out: Dog T1/2) of 2.34 min. For the same compound, the half-life [6, 11] was 28 min, the half-life ([6]; Hepatocyte stability) was 28 min and the EC50 (ferroptosis) was 1 to 10 µM. For the same compound, the EC50 (HT-29) was 28 nM, the half-life ([7]; comparison table with WO2016/101885 compounds, read-out: Monkey Liver Microsome T1/2) was 5 min and the half-life ([7]; liver microsome stability, read-out: Monkey T1/2) was 4.72 min. It also gave an AUC(0-inf) (PK in dog; IV 2 mg/kg) of 1840 ng·h/mL, a clearance (PK in dog; IV 2 mg/kg) of 18.5 mL/min/kg and a half-life (PK in dog; IV 2 mg/kg) of 61.2 min. For the same compound, the Vd (PK in dog; IV 2 mg/kg, read-out: Vdss) was 0.73 L/kg, the AUC(0-inf) (PK in dog; PO 10 mg/kg) was 1320 ng·h/mL and the Cmax (PK in dog; PO 10 mg/kg) was 981 ng/mL. It also gave a bioavailability (PK in dog; PO 10 mg/kg) of 14.9%, a half-life (PK in dog; PO 10 mg/kg) of 429 min and an AUC(0-inf) (PK in dog; PO 60 mg/kg) of 2050 ng·h/mL. The Cmax (PK in dog; PO 60 mg/kg) was 938 ng/mL, the bioavailability (PK in dog; PO 60 mg/kg) was 4.06% and the half-life (PK in dog; PO 60 mg/kg) was 339 min. It also gave an AUC(0-inf) (PK in dog; PO 150 mg/kg) of 7230 ng·h/mL, a Cmax (PK in dog; PO 150 mg/kg) of 2440 ng/mL and a bioavailability (PK in dog; PO 150 mg/kg) of 5.33%. For the same compound, the half-life (PK in dog; PO 150 mg/kg) was 714 min, the EC50 (necrosis; Necrosis Inhibitory Activity, given as range, read-out: EC50) was 1 to 1000 nM and the EC50 (necrosis; cell necrosis assay, given as bound or range, read-out: Cell viability assay, EC50) was less than 100 nM. For the same compound, the half-life [8] was 21.2 min, the half-life [9, 11] was 152 min and the half-life ([9]; Hepatocyte stability) was 152 min. For the same compound, the AUC(0-inf) (PK in mouse; IV 2 mg/kg) was 489 ng·h/mL, the clearance (PK in mouse; IV 2 mg/kg) was 68.2 mL/min/kg and the half-life (PK in mouse; IV 2 mg/kg) was 17.4 min. For the same compound, the Vd (PK in mouse; IV 2 mg/kg, read-out: Vdss) was 1.7 L/kg, the AUC(0-inf) (PK in mouse; PO 10 mg/kg) was 823 ng·h/mL and the Cmax (PK in mouse; PO 10 mg/kg) was 1000 ng/mL. It also gave a bioavailability (PK in mouse; PO 10 mg/kg) of 33.7%, a half-life (PK in mouse; PO 10 mg/kg) of 28.8 min and an AUC(0-inf) (PK in mouse; PO 40 mg/kg) of 5410 ng·h/mL. The Cmax (PK in mouse; PO 40 mg/kg) was 5420 ng/mL, the bioavailability (PK in mouse; PO 40 mg/kg) was 55.4% and the half-life (PK in mouse; PO 40 mg/kg) was 49.8 min. The “EAE-induced myelin / spinal cord damage and animal paralysis” value ([10]; 10 g of compound per kilogram food, H&E stained spinal cord sections, listed as SIR1-365) was “significantly reduced EAE-induced myelin damage and animal paralysis; also recorded: substantial reduction of myelin damage”, the “disease score in EAE mice” value ([10]; delivered by food at 10 g/kg, 28 consecutive days) was “significantly reduced the disease score” and the AUC(0-inf) (PK in rat; Rat, IV 2 mg/kg) was 540 ng·h/mL. The clearance (PK in rat; Rat, IV 2 mg/kg) was 61.7 mL/min/kg, the Vd (PK in rat; Rat, IV 2 mg/kg, read-out: Vdss) was 1.9 L/kg and the AUC(0-inf) (PK in rat; Rat, PO 20 mg/kg) was 1580 ng·h/mL. The Cmax (PK in rat; Rat, PO 20 mg/kg) was 1570 ng/mL, the AUC(0-inf) (PK in rat; Rat, PO 60 mg/kg) was 7520 ng·h/mL and the Cmax (PK in rat; Rat, PO 60 mg/kg) was 4910 ng/mL. The AUC (PK in rat; SD rat, PO, dose 60 mg/Kg micropower) was 7520 ng·h/mL, the half-life (PK in rat; iv, 2 mg/kg, IV 2 mg/kg) was 35.4 min and the bioavailability (PK in rat; po, 20 mg/kg, PO 20 mg/kg) was 39.4%. It also gave a half-life (PK in rat; po, 20 mg/kg, PO 20 mg/kg) of 84 min, a bioavailability (PK in rat; po, 60 mg/kg, PO 60 mg/kg) of 62.8% and a half-life (PK in rat; po, 60 mg/kg, PO 60 mg/kg) of 72 min. For the same compound, the bioavailability (PK in rat; [12]) was 62.8% and the half-life (PK in rat; [12]) was 70.2 min.
